Values joined by “and” are separate entries in the source; they are usually repeats but may differ in a detail not shown here. Identical values can stand only once. Toxic doses and inconclusive results are not listed. No stated cut-off is given here; in the data, active means T/C of 150% or more; inactive means T/C below 125%.
Tested on: L1210 leukemia ip in BDF1 mice, survival T/C
Experiment: NCI In Vivo Anticancer Drug Screen. Data for tumor model L1210 Leukemia (intraperitoneal) in B6D2F1 (BDF1) mice
Settings: endpoint: mean survival time, higher = longer survival
In short: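 Survival endpoint. Drug-treated group vs vehicle group, expressed as T divided by C. Tumor passaged by transplantation.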

[1] = dose: 100.0 mg/kg/injection, schedule: Q01DX001 (ip), vehicle: saline
[2] = dose: 200.0 mg/kg/injection, schedule: Q01DX001 (ip), vehicle: saline
[3] = dose: 25.0 mg/kg/injection, schedule: Q01DX009 (ip), vehicle: saline
[4] = dose: 100.0 mg/kg/injection, schedule: Q04DX003 (ip), vehicle: saline with Tween-80
[5] = dose: 200.0 mg/kg/injection, schedule: Q04DX003 (ip), vehicle: saline with Tween-80
[6] = dose: 100.0 mg/kg/injection, schedule: Q01DX009 (ip), vehicle: saline with Tween-80
[7] = dose: 200.0 mg/kg/injection, schedule: Q01DX009 (ip), vehicle: saline with Tween-80

Measured: T/C

CN(C)C(=O)Nc1nc2ccccc2s1
inactive: dose: 100.0 mg/kg/injection, schedule: Q04DX002 (ip), vehicle: other 88 % of control and 92 % of control | dose: 100.0 mg/kg/injection, schedule: Q04DX003 (ip), vehicle: other 96 % of control and 120 % of control | dose: 200.0 mg/kg/injection, schedule: Q04DX002 (ip), vehicle: other 97 % of control and 100 % of control | dose: 200.0 mg/kg/injection, schedule: Q04DX003 (ip), vehicle: other 99 % of control and 105 % of control | dose: 400.0 mg/kg/injection, schedule: Q04DX002 (ip), vehicle: other 95 % of control and 103 % of control

CC(C(=O)O)S(=O)(=O)Cc1ccccc1 (configuration not stated)
inactive: [1] 94 % of control | [2] 97 % of control | dose: 400.0 mg/kg/injection, schedule: Q01DX001 (ip), vehicle: saline 100 % of control

CCOC(=O)c1[nH]c2ccsc2c1C[N+]1(C)CCCCC1
inactive: dose: 12.5 mg/kg/injection, schedule: Q01DX001 (ip), vehicle: saline with Tween-80 105 % of control | dose: 25.0 mg/kg/injection, schedule: Q01DX001 (ip), vehicle: saline with Tween-80 103 % of control

CN1C2C=C(c3ccccc3)C(Br)C1CC2 (configuration not stated)
inactive: dose: 20.0 mg/kg/injection, schedule: Q04DX003 (ip), vehicle: saline with Tween-80 95 % of control | dose: 40.0 mg/kg/injection, schedule: Q04DX003 (ip), vehicle: saline with Tween-80 97 % of control | dose: 75.0 mg/kg/injection, schedule: Q01DX001 (ip), vehicle: saline 102 % of control | dose: 150.0 mg/kg/injection, schedule: Q01DX001 (ip), vehicle: saline 98 % of control

CC1(CCBr)NC(=O)NC1=O (configuration not stated)
inactive: dose: 100.0 mg/kg/injection, schedule: Q01DX009 (ip), vehicle: Klucel (hydroxypropylcellulose) (HPC) 121 % of control | dose: 100.0 mg/kg/injection, schedule: Q04DX003 (ip), vehicle: Klucel (hydroxypropylcellulose) (HPC) 98 % of control | dose: 200.0 mg/kg/injection, schedule: Q01DX009 (ip), vehicle: Klucel (hydroxypropylcellulose) (HPC) 101 % of control | dose: 200.0 mg/kg/injection, schedule: Q04DX003 (ip), vehicle: Klucel (hydroxypropylcellulose) (HPC) 119 % of control | dose: 400.0 mg/kg/injection, schedule: Q01DX009 (ip), vehicle: Klucel (hydroxypropylcellulose) (HPC) 95 % of control | dose: 400.0 mg/kg/injection, schedule: Q04DX003 (ip), vehicle: Klucel (hydroxypropylcellulose) (HPC) 107 % of control

CCC1(CC)COC(=O)NC1=O
inactive: dose: 1.56 mg/kg/injection, schedule: Q01DX009 (ip), vehicle: saline 105 % of control | dose: 3.12 mg/kg/injection, schedule: Q01DX009 (ip), vehicle: saline 116 % of control | dose: 6.25 mg/kg/injection, schedule: Q01DX009 (ip), vehicle: saline 103 % of control | dose: 6.25 mg/kg/injection, schedule: Q04DX003 (ip), vehicle: saline 101 % of control | dose: 12.5 mg/kg/injection, schedule: Q01DX009 (ip), vehicle: saline 103 % of control | dose: 12.5 mg/kg/injection, schedule: Q04DX003 (ip), vehicle: saline 101 % of control | [3] 97 % of control | dose: 25.0 mg/kg/injection, schedule: Q04DX003 (ip), vehicle: saline 87 % of control

OC(CCl)CN1CC[N+]2(CC1)CC[N+]1(CCN(CC(O)CCl)CC1)CC2 (configuration not stated)
inactive: dose: 37.5 mg/kg/injection, schedule: Q01DX009 (ip), vehicle: water 100 % of control | dose: 59.0 mg/kg/injection, schedule: Q01DX009 (ip), vehicle: water 105 % of control | dose: 75.0 mg/kg/injection, schedule: Q01DX009 (ip), vehicle: water 101 % of control | dose: 88.0 mg/kg/injection, schedule: Q01DX009 (ip), vehicle: water 104 % of control | dose: 132.0 mg/kg/injection, schedule: Q01DX009 (ip), vehicle: water 107 % of control | dose: 150.0 mg/kg/injection, schedule: Q01DX009 (ip), vehicle: water 114 % of control | dose: 200.0 mg/kg/injection, schedule: Q01DX009 (ip), vehicle: water 102 % of control | dose: 300.0 mg/kg/injection, schedule: Q01DX009 (ip), vehicle: water 93 % of control and 95 % of control

CCOC(=O)CSc1ccc2ccccc2[n+]1-c1ccccc1
inactive: [1] 99 % of control | [2] 94 % of control

O=C(C=C(C(F)(F)F)C(F)(F)F)c1ccc(Cl)cc1
inactive: dose: 3.13 mg/kg/injection, schedule: Q01DX009 (ip), vehicle: saline with Tween-80 101 % of control | dose: 6.25 mg/kg/injection, schedule: Q01DX009 (ip), vehicle: saline with Tween-80 97 % of control | dose: 12.5 mg/kg/injection, schedule: Q01DX009 (ip), vehicle: saline with Tween-80 100 % of control | dose: 25.0 mg/kg/injection, schedule: Q01DX009 (ip), vehicle: saline with Tween-80 97 % of control and 101 % of control | dose: 50.0 mg/kg/injection, schedule: Q04DX003 (ip), vehicle: saline with Tween-80 91 % of control | [4] 86 % of control | [5] 86 % of control

CCCCNC(=O)OCC
inactive: dose: 50.0 mg/kg/injection, schedule: Q01DX001 (ip), vehicle: carboxymethylcellulose (CMC) 102 % of control | dose: 50.0 mg/kg/injection, schedule: Q01DX009 (ip), vehicle: saline with Tween-80 90 % of control | dose: 88.0 mg/kg/injection, schedule: Q01DX001 (ip), vehicle: carboxymethylcellulose (CMC) 104 % of control and 92 % of control | dose: 100.0 mg/kg/injection, schedule: Q01DX001 (ip), vehicle: carboxymethylcellulose (CMC) 98 % of control | [6] 95 % of control | dose: 133.0 mg/kg/injection, schedule: Q01DX001 (ip), vehicle: carboxymethylcellulose (CMC) 93 % of control and 92 % of control | dose: 200.0 mg/kg/injection, schedule: Q01DX001 (ip), vehicle: carboxymethylcellulose (CMC) 93 % of control and 92 % of control | [7] 93 % of control | dose: 300.0 mg/kg/injection, schedule: Q01DX001 (ip), vehicle: carboxymethylcellulose (CMC) 96 % of control and 106 % of control | dose: 400.0 mg/kg/injection, schedule: Q01DX001 (ip), vehicle: carboxymethylcellulose (CMC) 102 % of control

CCCCCCCCCC1OOC1(C)C (configuration not stated)
inactive: dose: 50.0 mg/kg/injection, schedule: Q01DX001 (ip), vehicle: water 97 % of control | dose: 100.0 mg/kg/injection, schedule: Q01DX001 (ip), vehicle: water 93 % of control | dose: 200.0 mg/kg/injection, schedule: Q01DX001 (ip), vehicle: water 93 % of control

CCCCC(=O)NC(=O)c1ccccc1
inactive: [6] 96 % of control | [4] 101 % of control | [7] 96 % of control | [5] 92 % of control | dose: 400.0 mg/kg/injection, schedule: Q01DX009 (ip), vehicle: saline with Tween-80 93 % of control | dose: 400.0 mg/kg/injection, schedule: Q04DX003 (ip), vehicle: saline with Tween-80 103 % of control

Nc1c(Cl)ncnc1Nc1ccc([N+](=O)[O-])cc1
inactive: dose: 100.0 mg/kg/injection, schedule: Q01DX001 (ip), vehicle: Klucel (hydroxypropylcellulose) (HPC) 89 % of control | dose: 200.0 mg/kg/injection, schedule: Q01DX001 (ip), vehicle: Klucel (hydroxypropylcellulose) (HPC) 94 % of control | dose: 400.0 mg/kg/injection, schedule: Q01DX001 (ip), vehicle: Klucel (hydroxypropylcellulose) (HPC) 92 % of control

O=[N+]([O-])c1ccc(N2CCCCC2)c([N+](=O)[O-])c1
inactive: [3] 96 % of control | dose: 50.0 mg/kg/injection, schedule: Q01DX009 (ip), vehicle: saline 102 % of control | dose: 100.0 mg/kg/injection, schedule: Q01DX009 (ip), vehicle: saline 96 % of control | dose: 200.0 mg/kg/injection, schedule: Q01DX009 (ip), vehicle: saline 98 % of control | dose: 400.0 mg/kg/injection, schedule: Q01DX009 (ip), vehicle: saline 96 % of control

From PubChem BioAssay AID248 (DTP/NCI, 2004)
